Reference: PubChem BioAssay (NCI)
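In this assay, cells in 96-well plates receive the compound at five concentrations for 48 hours. Endpoints are linearly interpolated between the surrounding concentrations. TGI: concentration producing complete growth inhibition.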

What was measured:
Test in all cases: NCI-60 cell line screen, 48 h
[1] = tested on: NCI-H460 lung
[2] = tested on: A549 NSCLC
[3] = tested on: TK-10 renal
[4] = tested on: RPMI-8226 leukemia
[5] = tested on: SF-295 CNS
[6] = tested on: HOP-92 NSCLC
[7] = tested on: K-562 leukemia
[8] = tested on: KM12 colon
[9] = tested on: HCT-15 colon
[10] = tested on: DU-145 prostate
[11] = tested on: SNB-75 CNS
[12] = tested on: SF-539 CNS
[13] = tested on: U251 CNS
[14] = tested on: HCC-2998 colon
[15] = tested on: MDA-MB-435
[16] = tested on: SK-MEL-5 melanoma
[17] = tested on: OVCAR-5 ovarian
[18] = tested on: UACC-257 melanoma
[19] = tested on: RXF 393 renal
[20] = tested on: HOP-62 NSCLC
[21] = tested on: MDA-MB-231 breast
[22] = tested on: UO-31 renal
[23] = tested on: NCI-H226 lung
[24] = tested on: BT-549 breast
[25] = tested on: SK-OV-3 ovarian
[26] = tested on: PC-3 prostate
[27] = tested on: LOX IMVI melanoma
[28] = tested on: HCT-116 colon
[29] = tested on: SK-MEL-28 melanoma
[30] = tested on: OVCAR-3 ovarian
[31] = tested on: OVCAR-4 ovarian
[32] = tested on: MALME-3M melanoma
[33] = tested on: HT29 colon
[34] = tested on: SN12C renal
[35] = tested on: MDA-N
[36] = tested on: UACC-62 melanoma
[37] = tested on: COLO 205 colon
[38] = tested on: T-47D breast
[39] = tested on: SW-620 colon
[40] = tested on: M14 melanoma
[41] = tested on: CAKI-1 renal
[42] = tested on: SK-MEL-2 melanoma
[43] = tested on: 786-0 renal
[44] = tested on: HS 578T breast
[45] = tested on: MCF7 breast
[46] = tested on: NCI-H522 lung
[47] = tested on: SNB-19 CNS
[48] = tested on: NCI/ADR-RES ovarian
[49] = tested on: CCRF-CEM leukemia
[50] = tested on: NCI-H23 lung
[51] = tested on: ACHN renal
[52] = tested on: HL-60(TB) leukemia
[53] = tested on: SF-268 CNS
[54] = tested on: EKVX NSCLC
[55] = tested on: A498 renal
[56] = tested on: MOLT-4 leukemia
[57] = tested on: OVCAR-8 ovarian
[58] = tested on: IGROV1 ovarian

## Cc1ccc2ccc(O)cc2c1
[1]
  TGI: > 100 µM
[2]
  TGI: > 100 µM
[3]
  TGI: > 100 µM
[4]
  TGI: 66.4 µM
[5]
  TGI: > 100 µM
[6]
  TGI: 80.9 µM
[7]
  TGI: 47.1 µM
[8]
  TGI: > 100 µM
[9]
  TGI: > 100 µM
[10]
  TGI: > 100 µM
[11]
  TGI: > 100 µM
[12]
  TGI: > 100 µM
[13]
  TGI: 48.8 µM
[14]
  TGI: 46.8 µM
[15]
  TGI: 46.8 µM
[16]
  TGI: > 100 µM
[17]
  TGI: > 100 µM
[18]
  TGI: > 100 µM
[19]
  TGI: > 100 µM
[20]
  TGI: > 100 µM
[21]
  TGI: > 100 µM
[22]
  TGI: 67.1 µM
[23]
  TGI: > 100 µM
[24]
  TGI: 99.4 µM
[25]
  TGI: > 100 µM
[26]
  TGI: 52.9 µM
[27]
  TGI: > 100 µM
[28]
  TGI: > 100 µM
[29]
  TGI: > 100 µM
[30]
  TGI: 28.7 µM
[31]
  TGI: 52 µM
[32]
  TGI: > 100 µM
[33]
  TGI: > 100 µM
[34]
  TGI: > 100 µM
[35]
  TGI: 42.6 µM
[36]
  TGI: > 100 µM
[37]
  TGI: > 100 µM
[38]
  TGI: > 100 µM
[39]
  TGI: > 100 µM
[40]
  TGI: > 100 µM
[41]
  TGI: > 100 µM
[42]
  TGI: > 100 µM
[43]
  TGI: > 100 µM
[44]
  TGI: > 100 µM
[45]
  TGI: > 100 µM
[46]
  TGI: 42.4 µM
[47]
  TGI: > 100 µM
[48]
  TGI: 60.4 µM
[49]
  TGI: 61.8 µM
[50]
  TGI: > 100 µM
[51]
  TGI: > 100 µM
[52]
  TGI: 52.8 µM
[53]
  TGI: > 100 µM
[54]
  TGI: > 100 µM
[55]
  TGI: > 100 µM
[56]
  TGI: 55.9 µM
[57]
  TGI: 60.9 µM
[58]
  TGI: 57.3 µM

## CCCCCc1cccc(=O)o1
[1]
  TGI: > 100 µM
[2]
  TGI: > 100 µM
[3]
  TGI: > 100 µM
[4]
  TGI: > 100 µM
[5]
  TGI: > 100 µM
[6]
  TGI: > 100 µM
[7]
  TGI: > 100 µM
[8]
  TGI: > 100 µM
[9]
  TGI: > 100 µM
[10]
  TGI: > 100 µM
[12]
  TGI: > 100 µM
[13]
  TGI: > 100 µM
[14]
  TGI: > 100 µM
[15]
  TGI: > 100 µM
[16]
  TGI: > 100 µM
[17]
  TGI: > 100 µM
[18]
  TGI: > 100 µM
[19]
  TGI: > 100 µM
[20]
  TGI: > 100 µM
[21]
  TGI: > 100 µM
[22]
  TGI: > 100 µM
[23]
  TGI: > 100 µM
[24]
  TGI: > 100 µM
[25]
  TGI: > 100 µM
[26]
  TGI: > 100 µM
[27]
  TGI: > 100 µM
[28]
  TGI: > 100 µM
[29]
  TGI: > 100 µM
[30]
  TGI: > 100 µM
[31]
  TGI: > 100 µM
[32]
  TGI: > 100 µM
[33]
  TGI: > 100 µM
[34]
  TGI: > 100 µM
[35]
  TGI: > 100 µM
[36]
  TGI: > 100 µM
[37]
  TGI: > 100 µM
[38]
  TGI: > 100 µM
[39]
  TGI: > 100 µM
[40]
  TGI: > 100 µM
[41]
  TGI: > 100 µM
[42]
  TGI: > 100 µM
[43]
  TGI: > 100 µM
[44]
  TGI: > 100 µM
[45]
  TGI: > 100 µM
[46]
  TGI: > 100 µM
[47]
  TGI: > 100 µM
[48]
  TGI: > 100 µM
[49]
  TGI: > 100 µM
[50]
  TGI: > 100 µM
[51]
  TGI: > 100 µM
[52]
  TGI: > 100 µM
[53]
  TGI: > 100 µM
[54]
  TGI: > 100 µM
[55]
  TGI: > 100 µM
[56]
  TGI: > 100 µM
[57]
  TGI: > 100 µM
[58]
  TGI: > 100 µM
